From US9113629B2, “4-amino-6-(4-substituted-phenyl)-picolinates and 6-amino-2-(4-substituted-phenyl)-pyrimidine-4-carboxylates and their use as herbicides” (DOW AGROSCIENCES LLC, priority 2013, dated 2015)

How the values were obtained:
Assay in all cases: Post-emergent Test III, herbicidal activity in wheat and barley
Format in all cases: in vivo
[1] = test system: ALOMY: black-grass (Alopecurus myosuroides); conditions: for pest or weed control at 35 g/ha / pest or weed control at 70 g/ha / pest or weed control at 140 g/ha: Alopecurus myosuroides, post-emergence, 504 h, read-out: Visual Growth Reduction (%) 21 Days After Application ALOMY; for pest or weed control at 35 g/ha: 35 g ai/ha; for pest or weed control at 70 g/ha: 70 g ai/ha; for pest or weed control at 140 g/ha: 140 g ai/ha; for GR50 ALOMY / GR80 ALOMY: probit analysis, 21 days after application; for GR50 ALOMY: dose for growth reduction of 50 percent; for GR80 ALOMY: dose for growth reduction of 80 percent
Procedure, shortened: (§1)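 GR20, GR50, GR80 and GR90 come from probit analysis of visual injury scores (0 = none, 100 = complete kill) taken 21 d after treatment. Foliar application was by track sprayer delivering 187 L/ha at five rates, from high down to 1/16×, onto greenhouse plants at the 2–3 leaf stage, with solvent-blank controls.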

[2] = test system: BROTE: downy brome (Bromus tectorum); conditions: for pest or weed control at 35 g/ha / pest or weed control at 70 g/ha / pest or weed control at 140 g/ha: Bromus tectorum, post-emergence, 504 h, read-out: Visual Growth Reduction (%) 21 Days After Application BROTE; for pest or weed control at 35 g/ha: 35 g ai/ha; for pest or weed control at 70 g/ha: 70 g ai/ha; for pest or weed control at 140 g/ha: 140 g ai/ha; for GR50 BROTE / GR80 BROTE: probit analysis, 21 days after application; for GR50 BROTE: dose for growth reduction of 50 percent; for GR80 BROTE: dose for growth reduction of 80 percent
Procedure, shortened: as §1

[3] = test system: PAPRH: common poppy (Papaver rhoeas); conditions: for pest or weed control at 35 g/ha / pest or weed control at 70 g/ha / pest or weed control at 140 g/ha: Papaver rhoeas, post-emergence, 504 h, read-out: Visual Growth Reduction (%) 21 Days After Application PAPRH; for pest or weed control at 35 g/ha: 35 g ai/ha; for pest or weed control at 70 g/ha: 70 g ai/ha; for pest or weed control at 140 g/ha: 140 g ai/ha; for GR50 PAPRH / GR80 PAPRH: probit analysis, 21 days after application; for GR50 PAPRH: dose for growth reduction of 50 percent; for GR80 PAPRH: dose for growth reduction of 80 percent
Procedure, shortened: as §1

[4] = test system: PHAMI: lesser canary grass (Phalaris minor); conditions: for pest or weed control at 35 g/ha / pest or weed control at 70 g/ha / pest or weed control at 140 g/ha: Phalaris minor, post-emergence, 504 h, read-out: Visual Growth Reduction (%) 21 Days After Application PHAMI; for pest or weed control at 35 g/ha: 35 g ai/ha; for pest or weed control at 70 g/ha: 70 g ai/ha; for pest or weed control at 140 g/ha: 140 g ai/ha; for GR50 PHAMI / GR80 PHAMI: probit analysis, 21 days after application; for GR50 PHAMI: dose for growth reduction of 50 percent; for GR80 PHAMI: dose for growth reduction of 80 percent
Procedure, shortened: as §1

[5] = test system: STEME: common chickweed (Stellaria media); conditions: for pest or weed control at 35 g/ha / pest or weed control at 70 g/ha / pest or weed control at 140 g/ha: Stellaria media, post-emergence, 504 h, read-out: Visual Growth Reduction (%) 21 Days After Application STEME; for pest or weed control at 35 g/ha: 35 g ai/ha; for pest or weed control at 70 g/ha: 70 g ai/ha; for pest or weed control at 140 g/ha: 140 g ai/ha; for GR50 STEME / GR80 STEME: probit analysis, 21 days after application; for GR50 STEME: dose for growth reduction of 50 percent; for GR80 STEME: dose for growth reduction of 80 percent
Procedure, shortened: as §1

[6] = test system: VERPE: bird's-eye speedwell (veronica persica); conditions: for pest or weed control at 35 g/ha / pest or weed control at 70 g/ha / pest or weed control at 140 g/ha: Veronica persica, post-emergence, 504 h, read-out: Visual Growth Reduction (%) 21 Days After Application VERPE; for pest or weed control at 35 g/ha: 35 g ai/ha; for pest or weed control at 70 g/ha: 70 g ai/ha; for pest or weed control at 140 g/ha: 140 g ai/ha; for GR50 VERPE / GR80 VERPE: probit analysis, 21 days after application; for GR50 VERPE: dose for growth reduction of 50 percent; for GR80 VERPE: dose for growth reduction of 80 percent
Procedure, shortened: as §1

Compound | pest or weed control at 35 g/ha [1] [%] | pest or weed control at 70 g/ha [1] [%] | pest or weed control at 140 g/ha [1] [%] | GR50 ALOMY [1] [g ai/ha] | GR80 ALOMY [1] [g ai/ha] | pest or weed control at 35 g/ha [2] [%] | pest or weed control at 70 g/ha [2] [%] | pest or weed control at 140 g/ha [2] [%] | GR50 BROTE [2] [g ai/ha] | GR80 BROTE [2] [g ai/ha] | pest or weed control at 35 g/ha [3] [%] | pest or weed control at 70 g/ha [3] [%] | pest or weed control at 140 g/ha [3] [%] | GR50 PAPRH [3] [g ai/ha] | GR80 PAPRH [3] [g ai/ha] | pest or weed control at 35 g/ha [4] [%] | pest or weed control at 70 g/ha [4] [%] | pest or weed control at 140 g/ha [4] [%] | GR50 PHAMI [4] [g ai/ha] | GR80 PHAMI [4] [g ai/ha] | other results
Nc1c(F)c(-c2ccc(OC(F)F)cc2)nc(C(=O)O)c1Cl [Compound 143] | 0 to 29 | 60 to 74 | 60 to 74 | 71 | >140 | 0 to 29 | 45 to 59 | 45 to 59 | 95 | >140 | 85 to 94 | 85 to 94 | 85 to 94 | 1 | 8 | 0 to 29 | 30 to 44 | 60 to 74 | 112 | >140 | pest or weed control at 35 g/ha [5]: 0 to 29%; pest or weed control at 70 g/ha [5]: 0 to 29%; pest or weed control at 140 g/ha [5]: 0 to 29%; GR50 STEME [5]: >140 g ai/ha; GR80 STEME [5]: >140 g ai/ha; pest or weed control at 35 g/ha [6]: 30 to 44%; pest or weed control at 70 g/ha [6]: 45 to 59%; pest or weed control at 140 g/ha [6]: 45 to 59%; GR50 VERPE [6]: 97 g ai/ha; GR80 VERPE [6]: >140 g ai/ha
Nc1c(F)c(-c2ccc(Br)cc2)nc(C(=O)O)c1Cl [Compound 20] | 75 to 84 | 75 to 84 | 75 to 84 | 21 | 72 | 75 to 84 | 85 to 94 | 85 to 94 | 3 | 87 | 95 to 100 | 95 to 100 | 95 to 100 | 1 | 1 | 85 to 94 | 85 to 94 | 85 to 94 | 5 | 25 | pest or weed control at 35 g/ha [5]: 75 to 84%; pest or weed control at 70 g/ha [5]: 95 to 100%; pest or weed control at 140 g/ha [5]: 95 to 100%; GR50 STEME [5]: 8 g ai/ha; GR80 STEME [5]: 25 g ai/ha; pest or weed control at 35 g/ha [6]: 60 to 74%; pest or weed control at 70 g/ha [6]: 60 to 74%; pest or weed control at 140 g/ha [6]: 75 to 84%; GR50 VERPE [6]: 33 g ai/ha; GR80 VERPE [6]: >140 g ai/ha
COC(=O)c1nc(-c2ccc(C#N)cc2)c(F)c(N)c1Cl [Compound 142] | 0 to 29 | 0 to 29 | 0 to 29 | >140 | >140 | 0 to 29 | 0 to 29 | 0 to 29 | >140 | >140 | 85 to 94 | 95 to 100 | 95 to 100 | 1 | 4 | 0 to 29 | 0 to 29 | 0 to 29 | >140 | >140 | pest or weed control at 35 g/ha [5]: 0 to 29%; pest or weed control at 70 g/ha [5]: 0 to 29%; pest or weed control at 140 g/ha [5]: 0 to 29%; GR50 STEME [5]: >140 g ai/ha; GR80 STEME [5]: >140 g ai/ha; pest or weed control at 35 g/ha [6]: 75 to 84%; pest or weed control at 70 g/ha [6]: 85 to 94%; pest or weed control at 140 g/ha [6]: 85 to 94%; GR50 VERPE [6]: 5 g ai/ha; GR80 VERPE [6]: 40 g ai/ha
